Reference: PubChem BioAssay (NCI)
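Method: 48-hour compound exposure of cells in 96-well plates, five concentrations, linear interpolation of endpoints. GI50 marks 50% less growth. TGI: total growth inhibition.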

What was measured:
Test in all cases: NCI-60 cell line screen, 48 h
[1] = system: BT-549 breast
[2] = system: CCRF-CEM leukemia
[3] = system: HOP-62 NSCLC
[4] = system: HS 578T breast
[5] = system: OVCAR-3 ovarian
[6] = system: PC-3 prostate
[7] = system: SF-295 CNS
[8] = system: SN12C renal
[9] = system: SNB-19 CNS
[10] = system: TK-10 renal

Row | Structure (SMILES) | GI50 [1] | TGI [1] | GI50 [2] | TGI [2] | GI50 [3] | TGI [3] | GI50 [4] | TGI [4] | GI50 [5] | TGI [5] | GI50 [6] | TGI [6] | GI50 [7] | TGI [7] | GI50 [8] | TGI [8] | GI50 [9] | TGI [9] | GI50 [10] | TGI [10]
1 | O=C1OCC2=C1C(c1cccc(Br)c1)c1cc3c(cc1N2CCO)CCC3 (stereo unspecified) | 0.209 µM | 6.5 µM | 0.148 µM | 10 µM | 0.0888 µM | 7.11 µM | 0.151 µM | 11.4 µM | 0.0339 µM | 0.153 µM | 0.0864 µM | 7.1 µM | 0.034 µM | 8.36 µM | 0.246 µM | 6.9 µM | 0.209 µM | 9.98 µM | 0.736 µM | 11.3 µM
2 | Cn1cc(C2=C(c3cn(CCCCO)c4ccccc34)C(=O)NC2=O)c2ccccc21 | 8.27 µM | > 19.6 µM | 6 µM | > 25 µM | 9.95 µM | > 25 µM | 4.87 µM | > 25 µM | 8.09 µM | > 25 µM | 9.38 µM | > 25 µM | 5.9 µM | > 25 µM | 7.17 µM | > 25 µM | 14.7 µM | > 25 µM | 10.1 µM | > 25 µM
3 | O=C(Nc1ccncc1)C(=O)c1cn(S(=O)(=O)c2ccc(F)cc2)c2ccccc12 | 1.58 µM | 39.9 µM | 6.21 µM | > 100 µM | 3.02 µM | > 100 µM | 3.65 µM | 82.1 µM | 1.76 µM | 7.6 µM | 4.45 µM | > 100 µM | 3.01 µM | 38.1 µM | 6.58 µM | > 100 µM | 19.5 µM | > 100 µM | 19.2 µM | 72.4 µM
4 | CS(=O)(=O)CCNCc1nc(-c2ccc3ncnc(Nc4ccc(OCc5cccc(C(F)(F)F)c5)cc4)c3c2)cs1 | > 25 µM | > 25 µM | > 25 µM | > 25 µM | 5.5 µM | 12.9 µM | 9.11 µM | > 25 µM | > 17.3 µM | > 25 µM | > 23.6 µM | > 25 µM | 9.45 µM | > 25 µM | > 25 µM | > 25 µM | 11.1 µM | > 25 µM | 1.67 µM | > 25 µM
5 | COc1cc2c(cc1OCCCNC(=O)c1cccc3c(=O)c4ccccc4[nH]c13)N=C[C@@H]1CCCN1C2=O | < 0.01 µM | < 0.0437 µM | < 0.01 µM |  | < 0.01 µM | 0.399 µM | < 0.01 µM | 0.121 µM |  | 6.64 µM | < 0.011 µM | 0.949 µM | < 0.0508 µM | 4.46 µM | < 0.01 µM | < 0.0126 µM | < 0.0206 µM | > 45.7 µM | < 0.0434 µM | 2.66 µM
6 | Cc1ncc(C(=O)Nc2ccc(CN3CCN(C)CC3)c(C(F)(F)F)c2)cc1C#Cc1cnc(N)c2ccncc12 | 2.85 µM | 8.33 µM | 2.73 µM | 10.8 µM | 1.38 µM | 3.18 µM | 0.984 µM | 4.65 µM | 1.67 µM | 5.33 µM | 2.41 µM | 6.76 µM | 1.23 µM | 2.93 µM | 0.616 µM | 3.77 µM | 1.8 µM | 4.62 µM | 1.6 µM | 4.19 µM
7 | CN1C(=O)N(C)C2C1NN=c1s/c(=C\c3ccc(Cl)cc3Cl)c(=O)n12 (stereo unspecified) | 0.264 µM | 12.8 µM | 0.262 µM | > 100 µM | 0.116 µM | 30.2 µM | 0.173 µM | > 92.6 µM | 0.104 µM | 11.2 µM | 0.167 µM | > 100 µM | 0.0579 µM | 15.3 µM | 0.422 µM | > 100 µM | 0.339 µM | > 100 µM | 10.2 µM | > 92.4 µM
8 | COc1cccc2c1C(=O)c1c(O)c3c(c(O)c1C2=O)C[C@](O)(C(=O)CO)C[C@H]3O[C@@H]1C[C@@H](NC(=O)CCCCCN(C)C2(c3ccc(F)cc3)CC3CCC2C3)[C@H](O)[C@@H](C)O1 (stereo partly specified) | 5.3 µM | 14.2 µM | 1.13 µM | 3.92 µM | 2.03 µM | 10 µM | 8.26 µM | 21.6 µM | 1.41 µM | 4.27 µM | 0.994 µM | 2.06 µM | 5.79 µM | 13.3 µM | 5.75 µM | 14.5 µM | 6.48 µM | 14.8 µM | 0.611 µM | 1.28 µM
9 | O=C1C=CC(=O)c2cc3cc(CBr)ccc3cc21 | 2.75 µM | 8.96 µM | 1.89 µM | > 100 µM | 16 µM | 37.8 µM | 28.7 µM | > 93.2 µM | 7.43 µM | > 21.8 µM | 3.85 µM | 8.9 µM | 25.9 µM | > 73.9 µM | 0.741 µM | 2.91 µM | 18.1 µM | > 55 µM | 3.54 µM | 16.7 µM
10 | CC(=O)OC12C=CC(=O)N1c1ccccc1C(=O)O2 (stereo unspecified) | > 100 µM | > 100 µM |  | > 100 µM |  | > 100 µM | > 100 µM | > 100 µM |  | > 100 µM | > 100 µM | > 100 µM |  | > 100 µM |  | > 100 µM |  | > 100 µM |  | > 100 µM
